Experimental data from publication PMC10343887, “Structural Optimization of BIPPO Analogs as Potent Antimalarials” (Molecules, 2023).
Read-outs that look alike come from different tables or passages of the source.

Assays:
P. falciparum = assay: Antimalarial screening against asexual blood stage P. falciparum; format: cell-based, Plasmodium falciparum; conditions: for P. fal pIC50 / IC50: potency against asexual blood stage of P. falciparum, average values n ≥ 2, s.d. < 0.3; for fold potency decrease compared with 30: relative to 30; for IC50: Plasmodium falciparum, read-out: P. fal pIC50 (converted)
Method: Previously, Howard et al. reported (sub)micromolar activity against P. falciparum for a series of BIPPO analogs with benzyl substituents. To further understand the structure–activity relationship (SAR) of this interesting scaffold, close analogs of 3 with substituents at R^1–R^4 positions were tested against P. falciparum and human MRC-5 cells as the control for non-specific toxicity (Table 1).
The assay for antimalarial activity was carried out as described in detail in Pereira et al..

human MRC-5 cells = assay: Non-specific toxicity control on human MRC-5 cells; format: cell-based
[1] = Non-specific toxicity control on human MRC-5 cells; format: cell-based
[2] = Metabolic stability in mouse liver microsomes (S9 fraction); format: in vitro ADME; conditions: for parent compound left: one hour of incubation; for metabolic stability relative to diclofenac: mouse Phase I assay
Method: (§1) Thus, compounds 23, 28–30, 47a and 47b with high potencies (pIC50 > 6) were evaluated for their in vitro metabolic stability in human and mouse liver microsomes (S9 fraction) with diclofenac as a reference compound. As summarized in Figure 2, substituents in the R^4 position affect metabolic stability. […] Their stability against mouse liver microsomes is lower, especially for their Phase I metabolism; only 38% and 26% of the parent compounds are left for 23 and 29 after one hour of incubation. […] For the adamantanyl analogs 30, 47a and 47b, metabolic stability differs drastically, with Phase I identified as the main metabolic pathway. Analog 47b was metabolized for >95% within 30 min with mouse liver microsomes, while 90% of 47a (tert-butyl analog) was left after one hour of incubation.
(§2) The assay for metabolic stability in human and mouse liver microsomal fractions (S9) was performed as described.

[3] = Metabolic stability in human liver microsomes (S9 fraction); format: in vitro ADME; conditions: one hour incubation, Phase I and Phase II metabolism
Method: as §1, §2

[4] = human MRC-5 cells, average values n ≥ 2, s.d. < 0.3, read-out: MRC-5 pIC50 (converted)
[5] = mouse liver microsomes, phase not given
[6] = mouse liver microsomes, Phase I metabolism

Compound | P. fal pIC50 (P. falciparum) | IC50 [1, 4] | metabolic stability in mouse liver microsomes (in words) ([2]; mouse liver microsomes) | IC50 (P. falciparum) | metabolic stability relative to diclofenac [2] | parent compound remaining [3] | also measured
5-(Benzyloxy)-3-isopropyl-1,6-dihydro-7H-pyrazolo[4,3-d]pyrimidin-7-one [compound 5] | 5.2 | – | – | – | – | – | fold decreased antimalarial potency compared to 3 (P. falciparum; P. falciparum, relative to 3): 5- to 25 fold; MRC-5 pIC50 (human MRC-5 cells; human MRC-5 cells, average values n ≥ 2, s.d. < 0.3): < 4.2
CC(C)(C)c1n[nH]c2c(=O)[nH]c(C34CC5CC(CC(C5)C3)C4)nc12 [47a, 5-(Adamantan-1-yl)-3-(tert-butyl)-1,6-dihydro-7H-pyrazolo[4,3-d]pyrimidin-7-one] | – | > 63.1 µM | favorable metabolic stability | – | – | – | fold potency decrease compared with 30 (P. falciparum; P. falciparum): 4 fold; parent compound left [2, 5]: 90%
O=c1[nH]c(C23CC4CC(CC(C4)C2)C3)nc2c(C3CCCC3)n[nH]c12 [47b, 5-(Adamantan-1-yl)-3-cyclopentyl-1,6-dihydro-7H-pyrazolo[4,3-d]pyrimidin-7-one] | 6.2 | > 63.1 µM | – | < 1 µM | metabolized faster than diclofenac | – | fold potency decrease compared with 30 (P. falciparum; P. falciparum): 2.5 fold; metabolized ([2]; mouse liver microsomes, within 30 min): > 95%
CC(C)c1n[nH]c2c(=O)[nH]c(C3CCCCC3)nc12 [compound 23, 5-Cyclohexyl-3-isopropyl-1,6-dihydro-7H-pyrazolo[4,3-d]pyrimidin-7-one] | – | > 63.1 µM | favorable metabolic stability | – | metabolized faster than diclofenac | more than 50% | fold potency increase compared with 3 (P. falciparum; P. falciparum, relative to 3): five; parent compound left [2, 6]: 38%
CC(C)c1n[nH]c2c(=O)[nH]c([C@H]3CC[C@H](O)CC3)nc12 [compound 27, trans-5-(4-Hydroxycyclohexyl)-3-isopropyl-1,6-dihydro-7H-pyrazolo [4,3-d]pyrimidin-7-one] | – | > 63.1 µM | – | 5.01 µM | – | – | –
CC(C)c1n[nH]c2c(=O)[nH]c(C3CCC(F)(F)CC3)nc12 [compound 28, 5-(4,4-Difluorocyclohexyl)-3-isopropyl-1,6-dihydro-7H-pyrazolo[4,3-d]pyrimidin-7-one] | 6.0 | > 63.1 µM | favorable metabolic stability | < 1 µM | – | more than 50% | parent compound left [2, 5]: 68%
CC(C)c1n[nH]c2c(=O)[nH]c(C34CCC(CC3)CC4)nc12 [compound 29, 5-(Bicyclo[2.2.2]octan-1-yl)-3-isopropyl-1,6-dihydro-7H-pyrazolo[4,3-d]pyrimidin-7-one] | – | > 63.1 µM | favorable metabolic stability | – | metabolized faster than diclofenac | more than 50% | parent compound left [2, 6]: 26%
CC(C)c1n[nH]c2c(=O)[nH]c(C34CC5CC(CC(C5)C3)C4)nc12 [compound 30, 5-(Adamantan-1-yl)-3-isopropyl-1,6-dihydro-7H-pyrazolo[4,3-d]pyrimidin-7-one] | – | > 63.1 µM | – | – | metabolized faster than diclofenac | – | fold potency increase compared with 3 (P. falciparum; P. falciparum, relative to 3): eight; toxicity for human MCR-5 cells (in words) (human MRC-5 cells): without showing noticeable toxicity
CC(C)c1n[nH]c2c(=O)[nH]c(C3CCNCC3)nc12 [compound 32, 3-Isopropyl-5-(piperidin-4-yl)-1,6-dihydro-7H-pyrazolo[4,3-d]pyrimidin-7-one] | – | – | – | > 63.1 µM | – | – | IC50 ([1]; human): > 63.1 µM
